Assay results: US11433090B2, “mTOR-inhibitor-containing medicine for treating or preventing ophthalmic symptoms, disorders, or diseases, and application thereof” (The Doshisha, priority 2017, dated 2022)

Key:
S6K = assay: Western blot of S6K phosphorylation after TGF-β2 stimulation in iFECD; format: cell-based, human; conditions: 3 pmol mTOR siRNA, FIG. 6
Procedure: (§1) The medium was removed from a culture dish in which iFECDs were being cultured, and the cells were supplemented with 1×PBS (−) that was preheated to 37° C., and were washed. This was repeated twice. The cells were supplemented again with 1×PBS (−) and incubated for 3 minutes at 37° C. (5% CO2). After removing the PBS (−), the cells were supplemented with 0.05% Trypsin-EDTA (Nacalai Tesque, 32778-34) and incubated for 5 minutes at 37° C. (5% CO2). The cells were then suspended in a medium, and collected by centrifugation at 1500 rpm for 3 minutes. DMEM (Nacalai Tesque, 08456-36)+10% FBS (Biowest, S1820-500)+1% P/S (Nacalai Tesque, 26252-94) was used as the medium.
(§2) iFECDs were seeded on a 12-well plate at a ratio of 7×10^4 cells per well and cultured for 24 hours at 37° C. (5% CO2) (DMEM+10% FBS+1% P/S was used as the medium). After 24 hours, the medium was removed. Rapamycin was added to culture the cells for 24 hours. (DMEM+2% FBS+1% P/S was used as the medium). After 24 hours, the medium was removed. A medium containing 10 ng/ml of Recombinant Human TGF-β2 (Wako, 200-19911) and rapamycin was added to culture the cells for 24 hours. […]
8 μg of the extracted protein was separated by SDS-PAGE and transferred onto a nitrocellulose membrane. […] The detected band strength was analyzed with a lumino image analyzer LAS-4000 mini (Fuji Film) and ImageQuant™ software (GE Healthcare). […]

fibronectin = assay: Western blot of fibronectin production induced by TGF-β2 in iFECD; format: cell-based, human; conditions: 3 pmol mTOR siRNA, then TGF-β2 10 ng/ml 24 h, FIG. 9
Procedure: as §1
as §2, with “6-well” for “12-well”, “2×10^5” for “7×10^4”
5 μg of the extracted protein was separated by SDS-PAGE and transferred onto a nitrocellulose membrane. […] The detected band strength was analyzed with a lumino image analyzer LAS-4000 mini (Fuji Film) and ImageQuant™ software (GE Healthcare). […]

mTOR siRNA: siRNA against mTOR gene (Ambion, AS026M0L); sense strand SEQ ID NO: 1, antisense strand SEQ ID NO: 2 (sense CAUUCGCAUUCAGUCCAUATT; antisense UAUGGACUGAAUGCGAAUGAT; chemistry not given here)
phosphorylation of S6K at protein level, western blot (S6K): suppressed | production of fibronectin induced by TGF-β2, western blot (fibronectin): hardly observed
